According to patent US20070128217A1 (priority 2003, published 2007):

Legend:
[1] = tested on: antibodies in sera from SARS patients (sera 1a, 1b, 2, 6, 37, 62, London, SARS-yellow, SARS-green); assay type: binding, human; parameters: Binding of serum 6 to linear peptides of protein X1 of SARS-CoV Urbani / Binding of serum 37 to linear peptides of protein X1 of SARS-CoV Urbani / Binding of serum 6 to looped/cyclic peptide (PEPSCAN-ELISA) / Binding of serum 37 to looped/cyclic peptide (PEPSCAN-ELISA) / Binding of serum 37 to looped/cyclic peptides of protein X1 of SARS-CoV Urbani / Binding of serum 6 to linear peptides of protein X2 / Binding of serum 37 to linear peptides of protein X2 / Binding of serum 37 to looped/cyclic peptides of protein X2 of SARS-CoV Urbani / Binding of serum 6 to linear peptides of protein M of SARS-CoV Urbani / Binding of serum 37 to linear peptides of protein M of SARS-CoV Urbani / Binding of serum 6 to looped/cyclic peptides of protein M of SARS-CoV Urbani / Binding of serum 37 to looped/cyclic peptides of protein M of SARS-CoV Urbani / Binding of serum 6 to linear peptides of protein X3 of SARS-CoV Urbani / Binding of serum 37 to linear peptides of protein X3 of SARS-CoV Urbani / Binding of serum 37 to looped/cyclic peptides of protein X3 of SARS-CoV Urbani / Binding of serum 6 to linear peptides of protein X4 of SARS-CoV Urbani / Binding of serum 37 to linear peptides of protein X4 of SARS-CoV Urbani / Binding of serum 37 to looped/cyclic peptides of protein X4 of SARS-CoV Urbani / Binding of serum 6 to linear peptides of protein X5 of SARS-CoV Urbani / Binding of serum 37 to linear peptides of protein X5 of SARS-CoV Urbani / Binding of serum 37 to looped/cyclic peptides of protein X5 of SARS-CoV Urbani / Binding of serum 6 to linear peptides of protein N of SARS-CoV Urbani / Binding of serum 37 to linear peptides of protein N of SARS-CoV Urbani / Binding of serum 6 to linear peptide (PEPSCAN-ELISA) / Binding of serum 1a to looped/cyclic peptides of protein N of SARS-CoV Urbani / Binding of serum 1b to looped/cyclic peptides of protein N of SARS-CoV Urbani / Binding of serum 2 to looped/cyclic peptides of protein N of SARS-CoV Urbani / Binding of serum 6 to looped/cyclic peptides of protein N of SARS-CoV Urbani / Binding of serum 37 to looped/cyclic peptides of protein N of SARS-CoV Urbani / Binding of serum 62 to looped/cyclic peptides of protein N of SARS-CoV Urbani / Binding of serum London to looped/cyclic peptides of protein N of SARS-CoV Urbani / Binding of serum SARS-green to looped/cyclic peptides of protein N of SARS-CoV Urbani: unit not given here
[2] = tested on: rabbit serum obtained by immunizing a rabbit with the SARS-CoV strain Frankfurt 1; assay type: binding; parameters: Binding of a rabbit serum to linear peptides / Binding of a rabbit serum to looped peptides / Rabbit serum linear peptides / Rabbit serum looped peptides / Binding of a rabbit serum to linear peptides of protein N of SARS-CoV Urbani (Rabbit serum linear peptides) / Binding of a rabbit serum to looped/cyclic peptides of protein N of SARS-CoV Urbani (Rabbit serum looped peptides): unit not given here
[3] = tested on: control sera (pooled serum of ten healthy LUMC hospital workers; commercial negative donor pooled serum from the Dutch bloodbank); assay type: binding, human; parameters: Binding of Control serum LUMC to linear peptides / Binding of Control serum Blood-bank to linear peptides / Binding of Control serum LUMC to looped peptides / Binding of Control Serum Blood-Bank to Looped peptides / Binding of Control serum LUMC to linear peptides of the protein M of SARS-CoV Urbani / Binding of Control serum Blood-bank to linear peptides of the protein M of SARS-CoV Urbani / Binding of Control serum LUMC to looped peptides of the protein M of SARS-CoV Urbani / Binding of Control Serum Blood-Bank to Looped peptides of the protein M of SARS-CoV Urbani: unit not given here

Sequence: TGIENATFFIFNKLV
- Binding of serum 1a to linear peptides of protein X1 of SARS-CoV Urbani [1]: 0.7
- Binding of serum 1a to looped/cyclic peptides of protein X1 of SARS-CoV Urbani [1]: 0.6
- Binding of serum 1b to linear peptides of protein X1 of SARS-CoV Urbani [1]: 0.5
- Binding of serum 1b to looped/cyclic peptides of protein X1 of SARS-CoV Urbani [1]: 0.5
- Binding of serum 2 to linear peptides of protein X1 of SARS-CoV Urbani [1]: 0.6
- Binding of serum 2 to looped/cyclic peptides of protein X1 of SARS-CoV Urbani [1]: 0.6
- Binding of serum 6 to linear peptides of protein X1 of SARS-CoV Urbani [1]: 0.5
- Binding of serum 6 to looped/cyclic peptides of protein X1 of SARS-CoV Urbani [1]: 0.5
- Binding of serum 37 to linear peptides of protein X1 of SARS-CoV Urbani [1]: 0.7
- Binding of serum 37 to looped/cyclic peptides of protein X1 of SARS-CoV Urbani [1]: 0.7
- Binding of serum 62 to linear peptides of protein X1 of SARS-CoV Urbani [1]: 0.7
- Binding of serum 62 to looped/cyclic peptides of protein X1 of SARS-CoV Urbani [1]: 0.7
- Binding of serum London to linear peptides of protein X1 of SARS-CoV Urbani [1]: 0.3
- Binding of serum London to looped/cyclic peptides of protein X1 of SARS-CoV Urbani [1]: 0.3
- Binding of serum SARS-green to linear peptides of protein X1 of SARS-CoV Urbani [1]: 0.4
- Binding of serum SARS-green to looped/cyclic peptides of protein X1 of SARS-CoV Urbani [1]: 0.2
- Binding of serum SARS-yellow to linear peptides of protein X1 of SARS-CoV Urbani [1]: 0.6
- Binding of serum SARS-yellow to looped/cyclic peptides of protein X1 of SARS-CoV Urbani [1]: 0.4
- Binding of a rabbit serum to linear peptides [2]: 0.1
- Binding of a rabbit serum to looped peptides [2]: 0.6
- Binding of Control Serum Blood-Bank to Looped peptides [3]: 0.8
- Binding of Control serum Blood-bank to linear peptides [3]: 0.8
- Binding of Control serum LUMC to linear peptides [3]: 0.7
- Binding of Control serum LUMC to looped peptides [3]: 0.7

Sequence: PETNILLNVPLRGTI
- Binding of serum 1a to linear peptides of protein M of SARS-CoV Urbani [1]: 0.8
- Binding of serum 1a to looped/cyclic peptides of protein M of SARS-CoV Urbani [1]: 0.6
- Binding of serum 1b to linear peptides of protein M of SARS-CoV Urbani [1]: 0.6
- Binding of serum 1b to looped/cyclic peptides of protein M of SARS-CoV Urbani [1]: 0.6
- Binding of serum 2 to linear peptides of protein M of SARS-CoV Urbani [1]: 0.7
- Binding of serum 2 to looped/cyclic peptides of protein M of SARS-CoV Urbani [1]: 0.7
- Binding of serum 6 to linear peptides of protein M of SARS-CoV Urbani [1]: 0.4
- Binding of serum 6 to looped/cyclic peptides of protein M of SARS-CoV Urbani [1]: 0.9
- Binding of serum 37 to linear peptides of protein M of SARS-CoV Urbani [1]: 0.9
- Binding of serum 37 to looped/cyclic peptides of protein M of SARS-CoV Urbani [1]: 0.8
- Binding of serum 62 to linear peptides of protein M of SARS-CoV Urbani [1]: 0.5
- Binding of serum 62 to looped/cyclic peptides of protein M of SARS-CoV Urbani [1]: 0.8
- Binding of serum London to linear peptides of protein M of SARS-CoV Urbani [1]: 0.4
- Binding of serum London to looped/cyclic peptides of protein M of SARS-CoV Urbani [1]: 0.3
- Binding of serum SARS-green to linear peptides of protein M of SARS-CoV Urbani [1]: 0.5
- Binding of serum SARS-green to looped/cyclic peptides of protein M of SARS-CoV Urbani [1]: 0.0
- Binding of serum SARS-yellow to linear peptides of protein M of SARS-CoV Urbani [1]: 0.3
- Binding of serum SARS-yellow to looped/cyclic peptides of protein M of SARS-CoV Urbani [1]: 0.6
- Rabbit serum linear peptides [2]: 0.1
- Rabbit serum looped peptides [2]: 0.3
- Binding of Control Serum Blood-Bank to Looped peptides of the protein M of SARS-CoV Urbani [3]: 0.8
- Binding of Control serum Blood-bank to linear peptides of the protein M of SARS-CoV Urbani [3]: 0.8
- Binding of Control serum LUMC to linear peptides of the protein M of SARS-CoV Urbani [3]: 0.8
- Binding of Control serum LUMC to looped peptides of the protein M of SARS-CoV Urbani [3]: 0.7

Sequence: AYSNRNRFLYIIKLV
- Binding of serum 1a to linear peptides of protein M of SARS-CoV Urbani [1]: 0.7
- Binding of serum 1b to linear peptides of protein M of SARS-CoV Urbani [1]: 0.6
- Binding of serum 2 to linear peptides of protein M of SARS-CoV Urbani [1]: 0.6
- Binding of serum 6 to linear peptides of protein M of SARS-CoV Urbani [1]: 0.6
- Binding of serum 37 to linear peptides of protein M of SARS-CoV Urbani [1]: 0.4
- Binding of serum 62 to linear peptides of protein M of SARS-CoV Urbani [1]: 0.5
- Binding of serum London to linear peptides of protein M of SARS-CoV Urbani [1]: 0.3
- Binding of serum SARS-green to linear peptides of protein M of SARS-CoV Urbani [1]: 0.5
- Binding of serum SARS-yellow to linear peptides of protein M of SARS-CoV Urbani [1]: 0.2
- Recognition of the peptide by sera of SARS-CoV infected individuals, and form (linear, looped/cyclic) in which it is recognized [1]: recognized in looped/cyclic form
- Rabbit serum linear peptides [2]: 0.3
- Rabbit serum looped peptides [2]: 0.5
- Binding of Control Serum Blood-Bank to Looped peptides of the protein M of SARS-CoV Urbani [3]: 0.6
- Binding of Control serum Blood-bank to linear peptides of the protein M of SARS-CoV Urbani [3]: 0.7
- Binding of Control serum LUMC to linear peptides of the protein M of SARS-CoV Urbani [3]: 0.7
- Binding of Control serum LUMC to looped peptides of the protein M of SARS-CoV Urbani [3]: 0.8
